Source: patent US20240376555A1, “TNRA MODIFICATION-SENSITIVE CODON TRANSLATION ASSAY COMPRISING LUMINESCENCE-BASED REPORTER SYSTEM” (priority 2021, published 2024)
“Also recorded” adds a separate entry of the source.

What was measured:
[1] = tested on: U34 enzymes; test: Dual luciferase (NanoLuc/Firefly) tRNA modification-sensitive codon translation assay in M395 cells; assay type: cell-based; conditions: M395 human primary melanoma cells; 250 nM for 24 hours; six U34 codon (xAA) repeats upstream of NanoLuc, xAG upstream of FireflyLuc; FIG. 1f
Description: (§1) In the preferred embodiment, the luminescence-based reporter system is the Nano-Glo® Dual-Luciferase® Reporter (NanoDLR™) Assay System commercially available from Promega. The medium may be removed and 40 microliters of complete cell culture medium may be added. The plate may be equilibrated at room temperature for 15 min. 40 microliters of ONE-Glo™ EX Reagent may be added for each well. The plates may be mixed and shaked and protected from light for 10 minutes. Then the luminescence may be read. 40 microliters of NanoDLR™ Stop and GloR Reagent may be freshly prepared and added to each well. The plates may be mixed and shaked and protected from light for 10 minutes. The luminescence may be read by any luminescence reader, preferably. The luminescence may be analyzed by calculating the Nanoluc/Firefly ratio.
(§2) Cells (MDA-MB231, M395 or A549) were stably transduced by the lentiviral system (pLV-Puro-hPGK) and 1:3 Mirus transfecting agent [Close et al, Mol Cell 2006].
(§3) Cells were culture in a suitable culture system in the presence of the candidate tRNA modification modulator.
(§4) Signals were detected by any luminescence reader, for example the TECAN Infinite M2000 Pro. Read time can be between 1 and 3 seconds with automatic attenuation.
(§5) No effect was seen using a construct lacking the codon repetitions (FIG. 1e). […]

[2] = tested on: U34 enzymes; test: Dual luciferase (NanoLuc/Firefly) tRNA modification-sensitive codon translation assay in A549 cells; assay type: cell-based; conditions: A549 human lung cells; time and concentration series; six U34 codon (xAA) repeats upstream of NanoLuc, xAG upstream of FireflyLuc; FIG. 1g-h
Description: as §1, §2, §3, §4, §5

Molecule: insulin
- luciferase specific ratio (NanoLuc/Firefly) [1]: increased luciferase specific ratio

Molecule: CC(C)n1nc(-c2cc3cc(O)ccc3[nH]2)c2c(N)ncnc21 [PP242]
- luciferase specific signal [2]: decreased luciferase specific signal in a time and concentration-dependent manner; also recorded: decreased luciferase specific signal in a time and concentration dependent manner

Molecule: Cn1c(=O)n(-c2ccc(C(C)(C)C#N)cc2)c2c3cc(-c4cnc5ccccc5c4)ccc3ncc21 [NVP-BEZ235]
- luciferase specific signal [2]: decreased luciferase specific signal in a time and concentration-dependent manner; also recorded: decreased luciferase specific signal in a time and concentration dependent manner
